Measured values as given in patent US6982362B1, “α-tocopherol transport protein knockout animal” (priority 1999, dated 2006).

Test: Plasma α-tocopherol levels in mice fed with α-tocopherol (HPLC)
Assay type: in vivo, mouse
Conditions: fed α-tocopherol 82 μmol/kg from 4 weeks of age, time course FIG. 7
Method: Each of the homozygous α-TTP-deficient, heterozygous α-TTP-deficient and wild-type mice was fed with α-tocopherol at a concentration of 82 μmol/kg from 4 weeks of age. All mice were then assayed for their plasma α-tocopherol levels according to the method of Kim, H. S. et al. (Free Rad. Res. 28, 87–92, 1998). More specifically, 50 μl of mouse plasma collected using heparin was diluted with 950 Pl of PBS, mixed with 1 ml of 6% pyrogarol in EtOH, and then allowed to stand at 70° C. for 2 minutes. After addition of 60% KOH (0.2 ml), the mixture was saponified at 70° C. for 30 minutes, vortexed with 5 ml of n-hexane and 2.5 ml of H2O, and then centrifuged to collect the n-hexane layer (4 ml). The layer was evaporated and dissolved in […] of ethanol, followed by HPLC analysis. HPLC was performed under the following conditions: column: IRIKA RP18 (250×4 mm), mobile phase: MeOH/H2O/NaClO4 (1000/2/7, v/v/w), detection: IRIKA Amperometric E-520 detector. Tocol was used as an internal standard.

plasma α-tocopherol level as compared with the wild-type mice (heterozygous α-TTP-deficient mice): about one-half
plasma α-tocopherol level (homozygous α-TTP-deficient mice): under the detection limit
Structure (SMILES): Cc1c(C)c2c(c(C)c1O)CC[C@@](C)(CCC[C@H](C)CCC[C@H](C)CCCC(C)C)O2 [α-tocopherol]
